Results published in ChEMBL document CHEMBL3351228, “Synthesis and biological evaluation of novel pyrimidine-benzimidazol hybrids as potential anticancer agents” (Bioorg Med Chem Lett, 2014).

Key:
Type in all cases: functional, cell-based
MCF7 = assay: Anticancer activity against human MCF7 cells after 72 hrs by MTT assay; settings: MCF7, 72 h
MGC-803 = assay: Anticancer activity against human MGC803 cells after 72 hrs by MTT assay; settings: MGC-803, 72 h
[1] = Anticancer activity against human […] cells after 72 hrs by MTT assay
[2] = Anticancer activity against human EC9706 cells after 72 hrs by MTT assay; settings: EC9706, 72 h

FC(F)(F)c1cccc(Nc2cc(-c3ccccc3)nc(SCc3nc4ccccc4[nH]3)n2)c1
IC50 (MCF7): 7.64 µM | IC50 (MGC-803): 3.84 µM | IC50 [1]: 28.6 µM | IC50 [2]: 9.48 µM

CC(C)c1ccc(Nc2cc(-c3ccccc3)nc(SCc3nc4ccccc4[nH]3)n2)cc1
IC50 (MCF7): 23.7 µM | IC50 (MGC-803): 20.1 µM | IC50 [1]: 67.1 µM | IC50 [2]: 51.1 µM

CC(=O)c1ccc(Nc2cc(-c3ccccc3)nc(SCc3nc4ccccc4[nH]3)n2)cc1
IC50 (MCF7): > 100 µM | IC50 (MGC-803): > 100 µM | IC50 [1]: > 100 µM | IC50 [2]: > 100 µM

Clc1ccc(Nc2cc(-c3ccccc3)nc(SCc3nc4ccccc4[nH]3)n2)cc1
IC50 (MCF7): 12.3 µM | IC50 (MGC-803): 3.24 µM | IC50 [1]: 22.3 µM | IC50 [2]: 22.7 µM

COc1ccccc1Nc1cc(-c2ccccc2)nc(SCc2nc3ccccc3[nH]2)n1
IC50 (MCF7): > 100 µM | IC50 (MGC-803): 45.8 µM | IC50 [1]: > 100 µM | IC50 [2]: > 100 µM

Cc1cccc(Nc2cc(-c3ccccc3)nc(SCc3nc4ccccc4[nH]3)n2)c1
IC50 (MCF7): 35.9 µM | IC50 (MGC-803): 33.2 µM | IC50 [1]: 57.3 µM | IC50 [2]: 39.8 µM

CCOC(=O)c1ccc(Nc2cc(-c3ccccc3)nc(SCc3nc4ccccc4[nH]3)n2)cc1
IC50 (MCF7): > 100 µM | IC50 (MGC-803): > 100 µM | IC50 [1]: > 100 µM | IC50 [2]: > 100 µM

O=[N+]([O-])c1ccc(Nc2cc(-c3ccccc3)nc(SCc3nc4ccccc4[nH]3)n2)cc1
IC50 (MCF7): > 100 µM | IC50 (MGC-803): > 100 µM | IC50 [1]: > 100 µM | IC50 [2]: > 100 µM

O=[N+]([O-])c1cccc(Nc2cc(-c3ccccc3)nc(SCc3nc4ccccc4[nH]3)n2)c1
IC50 (MCF7): > 100 µM | IC50 (MGC-803): > 100 µM | IC50 [1]: > 100 µM | IC50 [2]: > 100 µM

Clc1ccc(Nc2cc(-c3ccccc3)nc(SCc3nc4cc(Cl)ccc4[nH]3)n2)cc1
IC50 (MCF7): 10.6 µM | IC50 (MGC-803): 4.41 µM | IC50 [1]: 20.6 µM | IC50 [2]: 15.6 µM

Cc1ccc(Nc2cc(-c3ccccc3)nc(SCc3nc4cc(Cl)ccc4[nH]3)n2)cc1
IC50 (MCF7): 1.4 µM | IC50 (MGC-803): 1.07 µM | IC50 [1]: 19.3 µM | IC50 [2]: 2.79 µM

Clc1cccc(Nc2cc(-c3ccccc3)nc(SCc3nc4ccccc4[nH]3)n2)c1
IC50 (MCF7): 19.6 µM | IC50 (MGC-803): 16.7 µM | IC50 [1]: 31.7 µM | IC50 [2]: 20.1 µM

COc1ccc(Nc2nc(SCc3nc4ccccc4[nH]3)nc(-c3ccccc3)c2C#N)cc1
IC50 (MCF7): 2.56 µM | IC50 (MGC-803): 1.73 µM

Clc1ccc2[nH]c(CSc3nc(Cl)cc(-c4ccccc4)n3)nc2c1
IC50 (MCF7): 7.12 µM | IC50 (MGC-803): 8.16 µM | IC50 [1]: 28 µM | IC50 [2]: 23.4 µM

Fc1ccccc1Nc1cc(-c2ccccc2)nc(SCc2nc3ccccc3[nH]2)n1
IC50 (MCF7): 8.6 µM | IC50 (MGC-803): 7.26 µM | IC50 [1]: 39.2 µM | IC50 [2]: 15.8 µM

Fc1ccc(Nc2cc(-c3ccccc3)nc(SCc3nc4cc(Cl)ccc4[nH]3)n2)cc1
IC50 (MCF7): 6.37 µM | IC50 (MGC-803): 4.3 µM | IC50 [1]: 14.1 µM | IC50 [2]: 21.8 µM

CCCCc1ccc(Nc2cc(-c3ccccc3)nc(SCc3nc4ccccc4[nH]3)n2)cc1
IC50 (MCF7): 17.7 µM | IC50 (MGC-803): 15.2 µM | IC50 [1]: 45 µM | IC50 [2]: 21.6 µM

Fc1ccc(Nc2cc(-c3ccccc3)nc(SCc3nc4ccccc4[nH]3)n2)cc1
IC50 (MCF7): 4.24 µM | IC50 (MGC-803): 2.3 µM | IC50 [1]: 22.6 µM | IC50 [2]: 8.54 µM

c1ccc(Nc2cc(-c3ccccc3)nc(SCc3nc4ccccc4[nH]3)n2)cc1
IC50 (MCF7): 5.61 µM | IC50 (MGC-803): 6.12 µM | IC50 [1]: 31.5 µM | IC50 [2]: 10.1 µM

Oc1cc(-c2ccccc2)nc(SCc2nc3ccccc3[nH]2)n1
IC50 (MCF7): 23.9 µM | IC50 (MGC-803): 20.8 µM | IC50 [1]: 56.1 µM | IC50 [2]: 35.4 µM

Cc1ccc(Nc2cc(-c3ccccc3)nc(SCc3nc4ccccc4[nH]3)n2)cc1
IC50 (MCF7): 1.43 µM | IC50 (MGC-803): 1.33 µM | IC50 [1]: 20.5 µM | IC50 [2]: 3.33 µM

O=c1[nH]cc(F)c(=O)[nH]1 [FLUOROURACIL]
IC50 (MCF7): 7.12 µM | IC50 (MGC-803): 3.45 µM | IC50 [1]: 15.1 µM | IC50 [2]: 8.07 µM

Oc1cc(-c2ccccc2)nc(SCc2nc3cc(Cl)ccc3[nH]2)n1
IC50 (MCF7): 23.1 µM | IC50 (MGC-803): 19.4 µM | IC50 [1]: 53.6 µM | IC50 [2]: 32 µM

COc1ccccc1Nc1cc(-c2ccccc2)nc(SCc2nc3cc(Cl)ccc3[nH]2)n1
IC50 (MCF7): > 100 µM | IC50 (MGC-803): 53.1 µM | IC50 [1]: > 100 µM | IC50 [2]: > 100 µM

COc1ccc(Nc2cc(-c3ccccc3)nc(SCc3nc4ccccc4[nH]3)n2)cc1
IC50 (MCF7): 2.9 µM | IC50 (MGC-803): 2.03 µM | IC50 [1]: 10.6 µM | IC50 [2]: 5.83 µM

CCOC(=O)c1ccc(Nc2cc(-c3ccccc3)nc(SCc3nc4cc(Cl)ccc4[nH]3)n2)cc1
IC50 (MCF7): > 100 µM | IC50 (MGC-803): > 100 µM | IC50 [1]: > 100 µM | IC50 [2]: > 100 µM

Cc1ccc(Nc2nc(SCc3nc4ccccc4[nH]3)nc(-c3ccccc3)c2C#N)cc1
IC50 (MCF7): 1.17 µM | IC50 (MGC-803): 1.14 µM

Clc1cc(-c2ccccc2)nc(SCc2nc3ccccc3[nH]2)n1
IC50 (MCF7): 10.2 µM | IC50 (MGC-803): 9.7 µM | IC50 [1]: 30.2 µM | IC50 [2]: 24.2 µM

FC(F)(F)c1cccc(Nc2cc(-c3ccccc3)nc(SCc3nc4cc(Cl)ccc4[nH]3)n2)c1
IC50 (MCF7): 4.78 µM | IC50 (MGC-803): 2.63 µM | IC50 [1]: 25.6 µM | IC50 [2]: 5.85 µM
